# Test results reported in US9656981B2, “Peripherally-acting cannabinoid receptor agonists for chronic pain” (The Regents of the University of California, priority 2012, dated 2017).
# Columns and labels:
# Assay type in all cases: in vivo, rat
# [1] = system: sciatic nerve entrapment (SNE) neuropathy; assay: SNE neuropathy, mechanical allodynia (von Frey)
# Protocol: The effectiveness of CBR agonists was tested for alleviating the painful symptoms of neuropathy induced by unilateral sciatic nerve entrapment (SNE)^131. The peripheral neuropathy induced by SNE is highly comparative to that of chronic constriction injury (CCI), which uses chromic gut suture materials instead of polyethylene cuffs^132. […] This increased excitability is at least in part attributable to injury-induced post-transcriptional transport of the voltage-gated sodium channel 1.8 (NaV1.8) mRNA, axonal accumulation of NaV1.8 mRNA, and its local protein translation leading to the increased NaV1.8 functional expression in injured nerve^136. The hyperexcitability and ectopic burst discharge of primary sensory neurons are widely considered to be the major contributors to pain symptomatology of peripheral neuropathy models. The SNE-induced mechanical allodynia effectively models the most common complaint of human neuropathy patients of dynamic mechanical allodynia. Behavioral measurements of mechanical sensitivity were conducted before and after induction of SNE as follows:
# (§1) Rats are placed in a plastic-walled cage (10×20×13 cm) with a metal mesh floor (0.6×0.6 cm holes) and allowed to acclimate for 10 min. The amount of pressure (g) needed to evoke a hindpaw withdrawal response is measured 4 times on each paw separated by 30-s intervals using a von Frey-type digital meter (Model 1601C, IITC Instr.). Results of 4 tests/session are averaged for each paw.
# [2] = system: rats; assay: Hypothermia test of the tetrad
# Protocol: Rats are acclimated to a plastic restrainer apparatus (Model RTV-180 Braintree Scientific Inc.) on the day of testing by placing them in the restrainer twice for 5 min separated by 20 min. Baseline core temperature is taken before treatment, and the rectal temperature is measured again at various times after injection of the CB1R ligands.
# [3] = system: CFA-induced mechanical allodynia; assay: CFA chronic inflammation, mechanical allodynia; conditions: systemic injection
# Protocol: as §1
# Compounds were tested in a well-established model of chronic inflammation. In this model, unilateral intraplantar injection of complete Freund's adjuvant (CFA) leads to long-lasting symptoms of mechanical allodynia and thermal hyperalgesia of the affected hindpaw, which is alleviated by local, […] administration of CB1R ligands^125, 155. […] This is consistent with the higher CB1R affinity of our novel compound 13339-145-35 (Compound 9, see Table 1) compared with the AstraZeneca AZ11713908 compound^125.
smiles,measurement,setting,value
"CCCc1ccc(/C=C2\C=C(CCN3CCOCC3)c3ccccc32)c2ccccc12 [Compound 9, 4-{2-[(1E)-1-[(4-propylnaphthalen-1-yl)methylidene]-1H-inden-3-yl]ethyl} morpholine]",effect on SNE-induced mechanical allodynia (ipsilateral hindpaw withdrawal thresholds),"[1]; 0.3 mg/kg, systemic injection","large, reversible increases"
same,SNE Neuropath Assay-% return to pre-drug (0.3 mg/kg) contralateal threshold at 2-3 h,"[1]; 0.3 mg/kg, 2-3 h",110%
same,effect on contralateral hindpaw withdrawal thresholds,"[1]; 0.3 mg/kg, hindpaw contralateral to SNE","small, but significant increases"
same,effect on SNE-induced mechanical allodynia,[1]; 0.6 mg/kg,Suppression of SNE-induced mechanical allodynia
same,suppression of neuropathy symptoms after oral administration,"[1]; 3 mg/kg, gavage",effective in suppressing neuropathy symptoms
same,anti-allodynic effects at the 24 hr time point after oral administration,"[1]; 3 mg/kg, gavage, 24 hr",potent anti-allodynic effects
same,effect in the hypothermia assay,"[2]; 0.3 mg/kg, intraperitoneal",no effect
same,Hypothermia % change from predrug (0.3 mg/kg) at 2-3 hr,[2]; 2-3 hr,0%
same,effect on CFA-induced mechanical allodynia,[3],small but significant relief
